Reference: patent US20240285599A1, “Mature-Hepatocyte Transdifferentiation Suppressing Composition” (OSAKA UNIVERSITY, priority 2021, published 2024)

Test system: HuCCT1 cell xenograft
Test: Xenograft of NIK shRNA-introduced HuCCT1 cells in NOG mouse
Type: in vivo
Settings: HuCCT1 cells with shRNA introduced by lentivirus
Procedure: A histopathological slide was deparaffinized with xylene and ethanol. HE staining was performed with hematoxylin and eosin. In immunostaining, antigen activation was performed by heating in Target Retrieval Solution (Dako, USA), followed by blocking with bovine serum albumin and a reaction through use of a primary antibody at 4° C. overnight. A frozen section was dried at room temperature, and was blocked with BSA (Nacalai Tesque, Inc., Japan), followed by a reaction through use of a primary antibody in VECTASTAIN ABC Rabbit IgG Kit (Vector Laboratories, Inc., USA). DAB Substrate Kit (Vector Laboratories, Inc., USA) was used in a staining reaction. […] The number of Ki67-positive cells in a tumor was counted with ImageJ (Fiji). The immunostaining score of TRAF3 or NIK was calculated by multiplying a staining intensity (of from 0 to 3) by a stained area (%). Human ICC patients were grouped into two groups on the basis of the median immunostaining score of TRAF3 or NIK, and were evaluated for their disease-free survival (DFS) or overall survival (OS). […]
Further, the HuCCT1 cells were infected with negative control shRNA or NIK shRNA by using a lentivirus, and the infected cells were selected with puromycin. […] The measurement of the diameters of the tumors of the mice was started 3 weeks after the transplantation, and their tumor volumes were measured by the same method as that described above. […]

## NIK shRNA: shRNA against NIK, SEQ ID NO: 1, introduced into HuCCT1 cells by a lentivirus (CCGGCUCAGGACUCACGUAGCAUUACUCGAGUAAUGCUACGUGAGUCCUGAGUUUUU)
FIG. 24B
  number of Ki67-positive cells in tumors versus negative control shRNA-introduced tumors: significantly lower
Measured from day 21 after transplantation, FIG. 24A
  growth of xenografts derived from the HuCCT1 cells (tumor size): significantly suppressed
